{
  "source": "patent US20150272970A1",
  "about": "“TARGETING CHEMOTHERAPY AGENT RESISTANCE IN CANCER” (priority 2012, published 2015)",
  "key": {"[1]": {"tested_on": "DU145-pCK19-GFP and 22Rv1-pCK19-GFP sorted cells", "assay": "Colony formation assay of GFP-sorted cells", "type": "cell-based, human", "settings": "72 hours; for colony formation of CK19/GFP-negative cells / colony formation of CK19/GFP-positive cells: Mitoxantrone 125/500 nM, Cisplatin 5/2.5 μM, Vinorelbine 500/750 nM (DU145/22Rv1); for colony formation of CK19/GFP-negative cells with PI3K/AKT and Bcl-2 inhibition: LY294002 50 μM, ABT-737 10 μM", "protocol": "(§1) Cells were exposed to vehicle solution (Control), LY294002 (50 μM), and ABT-737 (10 μM) for 72 hours, alone or in combination."}, "[2]": {"tested_on": "22Rv1-pCK19-GFP cells", "assay": "Flow cytometry of viable CK19/GFP populations after Docetaxel", "type": "cell-based, human", "settings": "50 nM Docetaxel", "quoted_text": "(§3) Flow cytometry analysis of subpopulations of prostate cancer cells were carried out following standard procedures. Intracellular CK19 and CK18 expression analysis was performed in single-cell suspensions fixed with 70% ethanol, whereas the expression of cell surface HLA class I was determined in fresh cell samples (without fixation). Primary antibodies against CK19 (Abcam), CK18 (Abcam), HLA class I (Abcam), HLA class I conjugated to phycoerythrin (Abcam), and GFP (Abcam) were used. […] Samples were acquired with a FACscan Flow Cytometer (BD Biosciences) and analyzed with CellQuest Pro software (BD Biosciences). A minimum of 10,000 cells were measured per sample."}, "[3]": {"tested_on": "DU145-pCK19-GFP and 22Rv1-pCK19-GFP cells", "assay": "Immunoblots of Docetaxel-resistance markers in unsorted cells", "type": "cell-based, human", "settings": "Docetaxel 72 hours (10 nM DU145, 50 nM 22Rv1)", "protocol": "(§2) Whole cell extracts were prepared in sample buffer and analyzed by immunoblotting. Primary antibodies against poly (ADP-ribose) polymerase (PARP) (BD Pharmingen), cleaved caspase-3 (Cell Signaling), cytokeratin 19 (CK19) (Abcam), cytokeratin 18 (CK18) (Abcam), androgen receptor (AR) (Sigma-Aldrich), prostate specific membrane antigen (PSMA) (Abcam), prostate specific antigen (PSA) (Epitomics), cytokeratin 5 (CK5) (Covance), cytokeratin 14 (CK14) (Biogenex), p63 (Santa Cruz), CD44 (Neomarkers), activated Notch2 (Abcam), Hes1 (Abcam), Patched (Abcam), Gli1 (Santa Cruz), Gli2 (Abcam), pan-HLA class I (Abcam), and AKT (Cell Signaling), phospho-AKT Ser 473 (Cell Signaling), Bcl-2 (Cell Signaling), ABCB1/P-Glycoprotein (Calbiochem), Green fluorescent protein (Santa Cruz), and β-Actin (Sigma-Aldrich) were used in immunoblot assays using standard procedures. Protein expression was quantified by comparing band expression using Quantity One software (Bio-Rad)."}, "[4]": {"tested_on": "DU145-pCK19-GFP and 22Rv1-pCK19-GFP cells", "assay": "Live cell imaging (time-lapse) in presence of Docetaxel", "type": "cell-based, human", "settings": "in the presence of Docetaxel", "protocol": "Time-lapse videomicroscopy was used to assess Docetaxel sensitivity of DU145-pCK19-GFP and 22Rv1-pCK19-GFP cells. Cells growing in 6-well plates at low confluence were placed in the stage inside an incubator chamber at 37° C., 50% humidity, and in an atmosphere of 5% CO2. Unattended time-lapse movies of randomly chosen GFP+ and GFP− DU145 and 22Rv1 cells were performed with a Nikon Eclipse Ti inverted microscope. NIS Elements AR (Nikon) software was used to collect and process data. Imaging was performed using a 10× objective, and images were captured using 200-ms exposure times for GFP and 20-ms exposure times for bright field every 30 min."}, "[5]": {"tested_on": "DU145-pCK19-GFP cells", "assay": "Flow cytometry of viable CK19/GFP populations after Docetaxel", "type": "cell-based, human", "settings": "10 nM Docetaxel for 72 h", "quoted_text": "as §3"}, "[6]": {"tested_on": "DU145 and 22Rv1 xenografts", "assay": "Percentage of CK-negative cells in tumor xenografts", "type": "in vivo, NOD/SCID mice", "settings": "treated for 4 weeks", "quoted_text": "Immunofluorescence analyses were conducted on prostate cancer cell lines and formalin fixed paraffin-embedded tissue sections from normal human prostate, human cancers, and tumor xenografts. Primary antibodies included a combination of cytokeratin 19 and 18 (Abcam), green fluorescence protein (Abcam), cytokeratin 5 (Covance), cytokeratin 14 (Biogenex), p63 (Santa Cruz), pan-HLA class I (Abcam), Ki67 (Abcam) and the following transcription factors: activated Notch2 (Abcam), Gli1 (Santa Cruz), Gli2 (Abcam) and androgen receptor (DAKO). […] Prostate cancer cells (10,000) were plated in 35 mm culture dishes and 24 hours later stained by standard immunofluorescence procedures. Tissue sections (5 μm) were deparaffinized and submitted to standard peroxidase based immunohistochemistry and immunofluorescence procedures. Quantification of the expression of cytokeratins, HLA class I antigens, transcription factors, and androgen receptor was performed by evaluating tumor cells. Percentage of positive and negative cells was determined by counting the number of tumor cells in 10 contiguous high power fields in three different areas of the tumor, and referred to the total number of counted cancer cells."}, "[7]": {"tested_on": "Notch and Hedgehog pathway target genes", "assay": "Quantitative RT-PCR of Notch and Hedgehog pathway target genes in cells", "type": "cell-based, human", "settings": "1 μM, 72 hours, DU145-pCK19-GFP and 22Rv1-pCK19-GFP cells", "protocol": "Total RNA was isolated using the RNeasy Mini kit according to the manufacturer's instructions (Qiagen). Complementary DNA was synthesized from equivalent concentrations of total RNA using the SuperScript III First-Strand Synthesis SuperMix Kit (Invitrogen) according to the manufacturer's instructions. Coding sequences for genes of interest and β-Actin as an internal control were amplified from 500 ng of complementary DNA using the QuantiTect SYBR Green PCR Kit (Qiagen).\nAmplification was carried out using a Stratagene mx3005p (Agilent Technologies). Cycle threshold (Ct) values were determined and normalized to the housekeeping gene (β-actin) for each experiment. Fold changes for experimental groups relative to respective controls were calculated using MX Pro software (Agilent Technologies). Quantitative RT-PCR was performed in DU145-pCK19-GFP and 22Rv1-pCK19-GFP cells as well as in cells obtained from mice bearing DU145 and 22Rv1 tumor xenografts treated for 21 days with Docetaxel, and Hedgehog and Notch inhibitors, alone or in combination. Quantitative RT-PCR was performed in tumor xenografts removed 4 hours after the last drug dose was administered."}, "[8]": {"tested_on": "p-AKT (Ser473)", "assay": "Immunoblot of AKT phosphorylation", "type": "cell-based, human", "settings": "1 μM, 72 hours, CK19/GFP-negative cells", "protocol": "as §2"}, "[9]": {"tested_on": "Bcl-2", "assay": "Immunoblot of Bcl-2 expression", "type": "cell-based, human", "settings": "1 μM, 72 hours, CK19/GFP-negative cells", "protocol": "Whole cell extracts were prepared in sample buffer and analyzed by immunoblotting. […] Protein expression was quantified by comparing band expression using Quantity One software (Bio-Rad)."}, "[10]": {"tested_on": "CK19/GFP-negative cells", "assay": "Apoptotic response by Caspase-3 and PARP cleavage immunoblot", "type": "cell-based, human", "settings": "LY294002 50 μM, ABT-737 10 μM, 72 hours", "protocol": "as §2, §1"}},
  "note": "“Also recorded” adds a separate entry of the source.",
  "data": [
    {"compound": "CC(=O)O[C@@]12CO[C@@H]1C[C@H](O)[C@@]1(C)C(=O)[C@H](O)C3=C(C)[C@@H](OC(=O)[C@H](O)[C@@H](NC(=O)OC(C)(C)C)c4ccccc4)C[C@@](O)([C@@H](OC(=O)c4ccccc4)[C@H]21)C3(C)C", "note": "[Docetaxel]", "values": [
      {"measurement": "colony formation after exposure to Docetaxel", "setting": "[1]; Docetaxel 10 nM (DU145) and 50 nM (22Rv1)", "result": "only CK19/GFP-negative cells formed colonies"},
      {"measurement": "viable 22Rv1-pCK19-GFP-negative cells", "setting": "[2]; 8.5±3.5% before treatment", "result": "78.6±4.1", "unit": "%"},
      {"measurement": "viable CK19/GFP-positive cells", "setting": "[2]; 85.0±2.0% before treatment", "result": "19.3±3.4", "unit": "%"},
      {"measurement": "differentiation markers and developmental signaling pathways", "setting": "[3]", "result": "expected reduction in differentiation markers and increase in developmental signaling pathways"},
      {"measurement": "behavior of CK19/GFP-negative cells under therapy", "setting": "[4]", "result": "able to divide and exit mitosis"},
      {"measurement": "behavior of CK19/GFP-positive cells under therapy", "setting": "[4]", "result": "died after mitotic arrest"},
      {"measurement": "viable CK19/GFP-negative population", "setting": "[5]; 4.4±4.3% before treatment", "result": "73.1±10.2", "unit": "%"},
      {"measurement": "viable CK19/GFP-positive population", "setting": "[5]; 87.5±10.4% before treatment", "result": "28.3±10.6", "unit": "%"},
      {"measurement": "CK-negative cells in xenografts", "setting": "[6]", "result": "enriched for CK-negative cells"}
    ]},
    {"compound": "C[C@H](NC(=O)Cc1cc(F)cc(F)c1)C(=O)NC1C(=O)N(C)c2ccccc2-c2ccccc21", "note": "(stereo partly drawn) [DBZ, (2S)-2-[2-(3,5-difluorophenyl)-acetylamino]-N-(5-methyl-6-oxo-6,7-dihydro-5H-dibenzo[b,-d]azepin-7-yl)-propionamide]", "values": [
      {"measurement": "targeting of respective pathway (mRNA of pathway target genes)", "setting": "[7]", "result": "targeting their respective pathways"},
      {"measurement": "p-AKT (Ser473) level", "setting": "[8]", "result": "significantly reduced; also recorded: decreases"}
    ]},
    {"compound": "C[C@H](NC(=O)Cc1cc(F)cc(F)c1)C(=O)N[C@H]1N=C(c2ccccc2)c2ccccc2N(C)C1=O", "note": "[Compound E]", "values": [
      {"measurement": "targeting of respective pathway (mRNA of pathway target genes)", "setting": "[7]", "result": "targeting their respective pathways"},
      {"measurement": "p-AKT (Ser473) level", "setting": "[8]; listed as CE", "result": "significantly reduced; also recorded: specifically decreases"}
    ]},
    {"compound": "CC1=C2C[C@H]3[C@@H](CC=C4C[C@@H](O)CC[C@@]43C)[C@@H]2CC[C@]12O[C@@H]1C[C@H](C)CN[C@H]1[C@H]2C", "note": "[Cyclopamine]", "values": [
      {"measurement": "targeting of respective pathway (mRNA of pathway target genes)", "setting": "[7]", "result": "targeting their respective pathways"},
      {"measurement": "Bcl-2 expression level", "setting": "[9]", "result": "significantly reduced; also recorded: reduces"}
    ]},
    {"compound": "O=C1c2c(O)ccc(O)c2C(=O)c2c(NCCNCCO)ccc(NCCNCCO)c21", "note": "[Mitoxantrone]", "values": [
      {"measurement": "colony formation of CK19/GFP-negative cells", "setting": "[1]", "result": "formed colonies"},
      {"measurement": "colony formation of CK19/GFP-positive cells", "setting": "[1]", "result": "failed to do so"}
    ]},
    {"compound": "Cl.O=c1cc(N2CCOCC2)oc2c(-c3ccccc3)cccc12", "note": "[LY294002, 2-(4-Morpholinyl)-8-phenyl-1(4H)-benzopyran-4-one hydrochloride]", "values": [
      {"measurement": "apoptosis (PARP and Caspase-3 cleavage) with PI3K/AKT and Bcl-2 inhibition", "setting": "[10]", "result": "not individual"},
      {"measurement": "colony formation of CK19/GFP-negative cells with PI3K/AKT and Bcl-2 inhibition", "setting": "[1]", "result": "not individual"}
    ]},
    {"compound": "N.N.[Cl][Pt][Cl]", "note": "[Cisplatin]", "values": [
      {"measurement": "colony formation of CK19/GFP-negative cells", "setting": "[1]", "result": "formed colonies"},
      {"measurement": "colony formation of CK19/GFP-positive cells", "setting": "[1]", "result": "failed to do so"}
    ]},
    {"compound": "CCC1=C[C@@H]2CN(C1)Cc1c([nH]c3ccccc13)[C@@](C(=O)OC)(c1cc3c(cc1OC)N(C)[C@H]1[C@@](O)(C(=O)OC)[C@H](OC(C)=O)[C@]4(CC)C=CCN5CC[C@]31[C@@H]54)C2", "note": "[Vinorelbine]", "values": [
      {"measurement": "colony formation of CK19/GFP-negative cells", "setting": "[1]", "result": "formed colonies"},
      {"measurement": "colony formation of CK19/GFP-positive cells", "setting": "[1]", "result": "failed to do so"}
    ]},
    {"compound": "CS(=O)(=O)c1ccc(C(=O)Nc2ccc(Cl)c(-c3ccccn3)c2)c(Cl)c1", "note": "[GDC-0449, Vismodegib]", "values": [
      {"measurement": "targeting of respective pathway (mRNA of pathway target genes)", "setting": "[7]", "result": "targeting their respective pathways"},
      {"measurement": "Bcl-2 expression level", "setting": "[9]", "result": "significantly reduced; also recorded: reduces"}
    ]},
    {"compound": "CN(C)CC[C@H](CSc1ccccc1)Nc1ccc(S(=O)(=O)NC(=O)c2ccc(N3CCN(Cc4ccccc4-c4ccc(Cl)cc4)CC3)cc2)cc1[N+](=O)[O-]", "note": "[ABT-737]", "values": [
      {"measurement": "apoptosis (PARP and Caspase-3 cleavage) with PI3K/AKT and Bcl-2 inhibition", "setting": "[10]", "result": "not individual"},
      {"measurement": "colony formation of CK19/GFP-negative cells with PI3K/AKT and Bcl-2 inhibition", "setting": "[1]", "result": "not individual"}
    ]}
  ]
}
